“Also recorded” adds a separate entry of the source. Like-named read-outs stand apart in the source and are kept apart here.
How the values were obtained:
KRAS(G12C) [1] = target: T1, KRAS(G12C) (Homo sapiens, UniProt P01116, G12C); parameters: made in house; host or cells: HEK293 (transient transfection, unpurified extract); method as in PMID 32875077, PMID 34715575; conditions: Western blot, among three different cell lines; cited from earlier work
Target sequence in this assay (P01116 1-164 G12C): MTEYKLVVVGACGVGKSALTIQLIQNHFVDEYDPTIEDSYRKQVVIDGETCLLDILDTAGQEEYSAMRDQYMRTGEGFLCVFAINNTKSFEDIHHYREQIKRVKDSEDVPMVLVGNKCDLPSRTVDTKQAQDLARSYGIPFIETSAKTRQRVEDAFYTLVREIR

KRAS(G12C) [2] = target: T1, KRAS(G12C); assay: targeted protein degradation assay (EFC); assay type: cell-based; parameters: knocking in an ED fragment (and the relevant mutation in KRAS) into the KRAS locus by CRISPR technology; ED tag (ePL, enhanced ProLink); host or cells: A549 (SPRINTer A549 KRAS G12C, homozygous CRISPR knock-in)
Description: (§1) We tested the KRAS(G12C)-specific protein degrader LC2 (Figure 1C) with our three KRAS cell lines in the developed protein degradation assay. The assay was set up in homogeneous 384-well format with an 11-point dose response curve, with a top dose of 10 μM and each dose tested in quadruplicate. Cells were incubated with LC2 for 18 h and at the end of incubation, detection reagents containing the complementing EA fragment were added to each well for chemiluminescence quantitation. Shown in Figure 6A, LC2 induced a loss of signal (an indication of protein degradation) in KRAS(G12C) cells with a DC50 of 1.9 μM and a Dmax of 69%, close to the previously described value.[25]
(§2) The gRNAs (crRNA), HiFi Cas9 Nuclease V3, and ATTO 550 tracrRNA used in this study to generate ED-tagged KRAS cell lines were purchased from Integrated DNA Technologies (Coralville, IA). Double-stranded DNAs containing ED or ePL (enhanced ProLink) were purchased from Eurofins Genomics Blue Heron (Bothell, WA). […] The gRNA was first annealed with fluorescence-labeled (ATTO-550) tracrRNA in a 1:1 ratio to form an RNA duplex, followed by incubation with Cas9 nuclease to generate Cas9-gRNA ribonucleoprotein (RNP). […] At 16 h postelectroporation, cells with high fluorescence at 550 nm were sorted to enrich the genome-edited cell populations. […]
Target sequence in this assay (P01116 1-188 isoform P01116-2 G12C): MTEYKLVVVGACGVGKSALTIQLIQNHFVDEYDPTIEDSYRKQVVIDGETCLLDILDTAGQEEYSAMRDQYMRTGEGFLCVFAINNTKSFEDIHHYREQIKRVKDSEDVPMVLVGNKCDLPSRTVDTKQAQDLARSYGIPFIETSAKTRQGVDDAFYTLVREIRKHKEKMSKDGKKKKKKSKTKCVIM

KRAS(G12D) [3] = target: T2, KRAS(G12D) (Homo sapiens, UniProt P01116, G12D); assay: targeted protein degradation assay (EFC); assay type: cell-based; conditions: A549 ED-KRAS(G12D) cells, 18 h, top dose 10 μM
T2 construct: knocking in an ED fragment (and the relevant mutation in KRAS) into the KRAS locus by CRISPR technology; ED tag (ePL, enhanced ProLink); host or cells: A549 (SPRINTer A549 KRAS G12D, CRISPR knock-in)
T2 sequence (P01116 1-188 isoform P01116-2 G12D): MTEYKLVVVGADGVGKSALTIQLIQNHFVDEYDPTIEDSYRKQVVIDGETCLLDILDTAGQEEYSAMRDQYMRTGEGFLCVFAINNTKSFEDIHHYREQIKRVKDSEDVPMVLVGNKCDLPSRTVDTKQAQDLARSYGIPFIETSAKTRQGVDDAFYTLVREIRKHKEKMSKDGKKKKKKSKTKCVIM
Description: as §1, §2

KRAS(WT) [4] = target: T3, KRAS(WT) (Homo sapiens, UniProt P01116); assay: targeted protein degradation assay (EFC); assay type: cell-based; conditions: A549 ED-KRAS(WT) cells, 18 h, top dose 10 μM
T3 construct: knocking in an ED fragment (and the relevant mutation in KRAS) into the KRAS locus by CRISPR technology; ED tag (ePL, enhanced ProLink); host or cells: A549 (SPRINTer A549 KRAS WT, homozygous CRISPR knock-in)
T3 sequence (P01116 1-188 isoform P01116-2): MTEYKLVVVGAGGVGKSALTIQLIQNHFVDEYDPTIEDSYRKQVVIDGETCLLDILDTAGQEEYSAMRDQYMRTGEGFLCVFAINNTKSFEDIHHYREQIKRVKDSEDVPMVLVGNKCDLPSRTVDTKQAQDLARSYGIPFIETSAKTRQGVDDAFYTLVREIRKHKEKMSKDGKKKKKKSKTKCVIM
Description: as §1, §2

KRAS(G12D) [5] = target: T2, KRAS(G12D); assay: pulse target engagement assay; assay type: cell-based; conditions: KRAS(G12D) cells, 1 or 5 h incubation, 3 min at 67 °C
Description: (§3) Next, we explored the application of KRAS cell lines for a pulse target engagement (TE) assay to profile compounds or identify new ligands. The TE assay is based on the observation that the direct interaction between a compound and its cellular protein target increases the stability of the protein and reduces its turnover.[48],[49],[51] […] Therefore, in our pulse TE assay, cells are incubated with a compound and then subjected to an elevated temperature to induce protein denaturation. Compound binding protects the target protein from denaturation, and consequently preserves enzyme complementation activities with the cellular ED-tagged fusion protein, producing a robust chemiluminescent signal. In the absence of compound binding, the target protein forms denatured aggregates that leads to a loss of complementation ability and decreased chemiluminescent signal (Figure 7).
(§4) We next performed pulse TE assays with a panel of KRAS inhibitors on three KRAS cell lines. […] Cells were incubated with the compounds for 1 or 5 h, followed by a 3 min incubation at 67 °C.
(§5) The pulse target engagement assay was set up in a 96-well format with an 11-point dose response curve (triplicates/dose) and vehicle control. Cells were collected and diluted in complete medium that allowed for a cell seeding of 5000 cells in 40 μL per well in 96-well PCR plates (black, Thermo Fisher Scientific, Waltham, MA). […]

KRAS(WT) [6] = target: T3, KRAS(WT); assay: pulse target engagement assay; assay type: cell-based; conditions: KRAS(WT) cells, 1 or 5 h incubation, 3 min at 67 °C
Description: as §3, §4, §5

KRAS(G12C) [7] = target: T1, KRAS(G12C); assay: pulse target engagement assay; assay type: cell-based; parameters: knocking in an ED fragment (and the relevant mutation in KRAS) into the KRAS locus by CRISPR technology; ED tag (ePL, enhanced ProLink); host or cells: A549 (SPRINTer A549 KRAS G12C, homozygous CRISPR knock-in); conditions: KRAS(G12C) cells, 1 or 5 h incubation, 3 min at 67 °C
Description: as §3, §4, §5
Target sequence in this assay (P01116 1-188 isoform P01116-2 G12C): as the sequence (P01116 1-188 isoform P01116-2 G12C) above

Row | Compound | DC50 (KRAS(G12C) [1]) | Dmax (KRAS(G12C) [1]) | Dmax (KRAS(G12C) [2]; A549) | DC50 (KRAS(G12C) [2]; A549 ED-KRAS(G12C) cells, 18 h incubation) | protein degradation (KRAS(G12D) [3]) | protein degradation (KRAS(WT) [4]) | target engagement (affinity in words) (KRAS(G12D) [5]) | target engagement (affinity in words) (KRAS(WT) [6]) | target engagement (affinity in words) (KRAS(G12C) [7])
1 | C=C(F)C(=O)N1CCN(c2nc(OC[C@@H]3CCCN3CCCOCCC(=O)N[C@H](C(=O)N3C[C@H](O)C[C@H]3C(=O)NCc3ccc(-c4scnc4C)cc3)C(C)(C)C)nc3c2CCN(c2cccc4cccc(Cl)c24)C3)C[C@@H]1CC#N [LC2] | 250 to 760 nM | 75%–90% | 69% | 1900 nM | some degradation in KRAS(G12D) cells at high doses; also recorded: low levels of KRAS(G12D) degradation only at higher concentrations | sparing KRAS(WT) | – | – | –
2 | C#Cc1c(F)ccc2cc(O)cc(-c3ncc4c(N5CC6CCC(C5)N6)nc(OC[C@@]56CCCN5C[C@H](F)C6)nc4c3F)c12 [MRTX1133] | – | – | – | – | – | – | high selectivity; also recorded: high affinity | some interaction; also recorded: some binding to KRAS(G12C) and KRAS(WT) proteins at high concentration | some interaction; also recorded: some binding to KRAS(G12C) and KRAS(WT) proteins at high concentration
